The values that follow come from US10294212B2 (CURADEV PHARMA PRIVATE LTD., priority 2013, dated 2019).

Counter-ions that a name gives are not always drawn.

One may read the IC50 as the concentration at which inhibition is half-maximal.

For experiment [1], the target named is Human indoleamine 2,3-dioxygenase1 (hIDO1) (Homo sapiens (Human), UniProt P14902). Nature of the experiment: In-vitro IDO1 enzyme assay (conversion of L-tryptophan to KYN). The experiment is classed as biochemical. The note with it: read-out: IC50 (IDO1) Enz. The essentials:
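Kynurenine formation quantified by HPLC absorbance at 360 nm or LC/MS/MS after TCA quench and 15 min at 65 °C. Reaction: 10 nM N-His hIDO1, 30 μM tryptophan, ascorbate/methylene blue/catalase, pH 6.5 phosphate buffer, 37 °C for 30 min. Inhibition relative to 1% DMSO vehicle, fitted to IC50.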

Experiment [2] deals with Human TDO (hTDO)-transfected CHO-K1 cells (Homo sapiens (Human), UniProt P48775). Kind of experiment: CHO-K1 cell based TDO assay. The note with it: hTDO cellular assay. The essentials: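 Kynurenine output was read by LC/MS/MS after TCA precipitation and 15 min at 65° C. Before that, CHO-K1 cells stably carrying human TDO2 were incubated 2 h with compounds (typically 31 μM to 10 nM) and 80 μM L-tryptophan in HBSS. Decrease versus DMSO vehicle gave percent inhibition, then IC50.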
Human TDO (hTDO)-transfected CHO-K1 cells, sequence (P48775 whole entry): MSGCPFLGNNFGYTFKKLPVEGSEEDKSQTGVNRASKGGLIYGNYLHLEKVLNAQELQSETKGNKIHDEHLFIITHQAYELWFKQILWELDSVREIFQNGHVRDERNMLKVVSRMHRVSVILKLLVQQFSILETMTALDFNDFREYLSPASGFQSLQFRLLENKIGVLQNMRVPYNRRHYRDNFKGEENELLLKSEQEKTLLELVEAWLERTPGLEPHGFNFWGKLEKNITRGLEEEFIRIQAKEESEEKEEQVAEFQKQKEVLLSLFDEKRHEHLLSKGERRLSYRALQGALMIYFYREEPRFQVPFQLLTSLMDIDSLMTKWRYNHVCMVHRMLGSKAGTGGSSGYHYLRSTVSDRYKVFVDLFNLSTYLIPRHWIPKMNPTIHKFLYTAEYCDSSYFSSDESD

A further experiment deals with IDO1 in HeLa cells (Homo sapiens (Human), UniProt P14902). Kind of experiment: HeLa cell based IDO1 assay (IFNγ-induced, KYN in supernatant). The protocol: HeLa cells were obtained from ATCC and maintained in DMEM supplemented with sodium bicarbonate (2.1 g/L), HEPES (4.1 g/L), L-glutamine (2 mM), non-essential amino acid (84 mg/L) and fetal bovine serum (10% FBS) and maintained at 95% humidity and 5% CO2 in a 37° C. incubator. Unless otherwise stated, all materials were procured from Sigma. Upon incubation with gamma-interferon (IFNγ ), HeLa cells express IDO1, which catalyzes the formation of N-formyl kynurenine from tryptophan present in growth medium. The assay was performed as follows:
Cells were plated in medium (300 μL) at a density of 0.1 million per well of a 48 well plate and hIDO1 was induced by overnight treatment with IFNγ (50 ng/mL) (Peprotech, USA). The following day, cells were washed to remove IFNγ and were incubated with specific concentrations of test compounds (typically 10 μM to 1 nM, final volume 300 μL) in Hanks Balanced Salt Solution (HBSS) containing 80 μM L-tryptophan. Following incubation, supernatant (150 μL) was transferred to a 96 well plate into which 30%TCA (304) was added and the contents further incubated at 65° C. for 15 min to fully convert N-formylkynurenine to kynurenine. The reaction mixture was then centrifuged to remove sediments and the KYN in the supernatant was estimated by UV-visible absorption spectroscopy at 360 nm using a Waters HPLC system fitted with a C-18 column. (Xiangdong Liu et al. Blood 2010, Vol-117, 3520-30; Sono described above).
Percent inhibition at each concentration of test compounds was determined by estimating the decrease in KYN with reference to the reaction control with 1% DMSO vehicle. Data were analyzed using nonlinear regression to generate IC50 values using Graph Pad Prism® 5.

Human indoleamine 2,3-dioxygenase1 (hIDO1), sequence (P14902 whole entry): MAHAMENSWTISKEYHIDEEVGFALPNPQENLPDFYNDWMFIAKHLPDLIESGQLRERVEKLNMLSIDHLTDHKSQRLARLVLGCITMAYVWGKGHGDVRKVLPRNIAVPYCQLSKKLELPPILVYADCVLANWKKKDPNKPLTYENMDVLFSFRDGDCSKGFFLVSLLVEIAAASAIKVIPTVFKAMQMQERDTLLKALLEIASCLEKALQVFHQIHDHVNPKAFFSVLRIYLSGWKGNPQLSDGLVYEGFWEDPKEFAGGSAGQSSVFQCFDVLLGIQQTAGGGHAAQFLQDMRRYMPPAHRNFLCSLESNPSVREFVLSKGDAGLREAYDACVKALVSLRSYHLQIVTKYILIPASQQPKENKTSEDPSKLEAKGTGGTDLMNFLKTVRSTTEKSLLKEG
IDO1 in HeLa cells, sequence (P14902 whole entry): as above

In the case of `Nc1oc2cnc(F)cc2c1Nc1ccc(F)c(Cl)c1` [Compound 181, N^3-(3-Chloro-4-fluorophenyl)-5-fluorofuro[2,3-c]pyridine-2,3-diamine], the results for the IC50 (in experiment [1]; in experiment [2]; at IDO1 in HeLa cells) were less than 200 nM, less than 500 nM and less than 200 nM, respectively.
As for `CC(F)(F)c1cc(Nc2c(N)oc3cnccc23)ccc1F` [Compound 69, N^3-(3-(1,1-Difluoroethyl)-4-fluorophenyl)furo[2,3-c]pyridine-2,3-diamine], the figures for the IC50 (in experiment [1]; in experiment [2]; against IDO1 in HeLa cells) were 200 to 1000 nM, greater than 2000 nM and less than 200 nM, respectively.
The corresponding values for `Cc1cc(-c2nccc3c(Nc4ccc(F)c(C(F)(F)F)c4)c(N)oc23)ccn1` [Compound 205, N^3-(4-fluoro-3-(trifluoromethyl)phenyl)-7-(2-methylpyridin-4-yl)furo[2,3-c]pyridine-2,3-diamine] are less than 200 nM, 500 to 2000 nM and less than 200 nM.
The corresponding values for `Nc1oc2cnc(F)cc2c1Nc1ccc(F)c(F)c1` [Compound 216, N^3-(3,4-difluorophenyl)-5-fluorofuro[2,3-c]pyridine-2,3-diamine] are less than 200 nM, less than 500 nM and less than 200 nM.
`Nc1oc2cnc(F)cc2c1Nc1cccc(C(F)(F)F)c1` [Compound 221, 5-Fluoro-N^3-(3-(trifluoromethyl)phenyl)furo[2,3-c]pyridine-2,3-diamine]: the IC50 in experiment [1] was less than 200 nM; in experiment [2], 500 to 2000 nM; on IDO1 in HeLa cells it was less than 200 nM.
In the case of `Cc1cc(-c2nccc3c(Nc4cc(Cl)ccc4F)c(N)oc23)ccn1` [Compound 263, N^3-(5-Chloro-2-fluorophenyl)-7-(2-methylpyridin-4-yl)furo[2,3-c]pyridine-2,3-diamine], the IC50 is less than 200 nM in experiment [1], greater than 2000 nM in experiment [2] and less than 200 nM against IDO1 in HeLa cells.
As to `Cn1cc(-c2nccc3c(Nc4ccc(F)c(Cl)c4)c(N)oc23)cn1` [Compound 148, N^3-(3-Chloro-4-fluorophenyl)-7-(1-methyl-1H-pyrazol-4-yl)furo[2,3-c]pyridine-2,3-diamine], the IC50 in experiment [1] is less than 200 nM; in experiment [2] it was 500 to 2000 nM; against IDO1 in HeLa cells, less than 200 nM.
For `CCCc1nccc2c(Nc3cccc(C(F)(F)F)c3)c(N)oc12` [Compound 78, 7-Propyl-N^3-(3-(trifluoromethyl)phenyl)furo[2,3-c]pyridine-2,3-diamine], the IC50 in experiment [1] is less than 200 nM; in experiment [2] it was greater than 2000 nM; on IDO1 in HeLa cells it was less than 200 nM.
For `CCc1ccccc1Nc1c(N)sc2ccccc12` [Compound 232, N^3-(2-Ethylphenyl)benzo[b]thiophene-2,3-diamine hydrochloride], the concentration for half-maximal inhibition (IC50) in experiment [1] is greater than 1000 nM; in experiment [2], greater than 2000 nM; on IDO1 in HeLa cells, greater than 1000 nM.
Regarding `Nc1sc2ccc(Cl)cc2c1Nc1ccccc1` [Compound 130, 5-Chloro-N^3-phenylbenzo[b]thiophene-2,3-diamine], the IC50 in experiment [1] is 200 to 1000 nM; in experiment [2], greater than 2000 nM; on IDO1 in HeLa cells, 200 to 1000 nM.
Turning to `Nc1oc2c(N(c3ccccc3)c3ccccc3)nccc2c1Nc1ccc(F)c(Cl)c1` [Compound 200, N^3-(3-Chloro-4-fluorophenyl)-N^7,N^7-diphenylfuro[2,3-c]pyridine-2,3,7-triamine], the IC50 in experiment [1] is 200 to 1000 nM; in experiment [2], greater than 2000 nM; against IDO1 in HeLa cells, less than 200 nM.
On the same counts, the results for `Cc1ccc(Nc2c(N)oc3cnccc23)cc1C` [Compound 13, N^3-(3,4-Dimethylphenyl)furo[2,3-c]pyridine-2,3-diamine] are 200 to 1000 nM, 500 to 2000 nM and less than 200 nM.
On the same counts, the results for `COC(=O)c1ccc(-c2nccc3c(Nc4ccc(F)c(Cl)c4)c(N)oc23)cc1` [Compound 152, Methyl 4-(2-amino-3-((3-chloro-4-fluorophenyl)amino)furo[2,3-c]pyridin-7-yl)benzoate] are less than 200 nM, 500 to 2000 nM and less than 200 nM.
The corresponding values for `CNC(=O)c1cc(-c2nccc3c(Nc4ccc(F)c(Cl)c4)c(N)oc23)ccn1` [Compound 195, 4-(2-Amino-3-((3-chloro-4-fluorophenyl)amino)furo[2,3-c]pyridin-7-yl)-N-methylpicolinamide] are less than 200 nM, 500 to 2000 nM and less than 200 nM.
In the case of `Nc1oc2cnccc2c1Nc1cccc(CC2CC2)c1` [Compound 84, N^3-(3-(Cyclopropylmethyl)phenyl)furo[2,3-c]pyridine-2,3-diamine], the results for the IC50 (in experiment [1]; in experiment [2]; against IDO1 in HeLa cells) were greater than 1000 nM, greater than 2000 nM and 200 to 1000 nM, respectively.
On the same counts, the results for `Nc1sc2ccccc2c1Nc1cccc(F)c1` [Compound 120, N^3-(3-Fluorophenyl)benzo[b]thiophene-2,3-diamine] are less than 200 nM, less than 500 nM and less than 200 nM.
The corresponding values for `COc1cc(-c2nccc3c(Nc4ccc(F)c(Cl)c4)c(N)oc23)ccn1` [Compound 229, N^3-(3-Chloro-4-fluorophenyl)-7-(2-methoxypyridin-4-yl)furo[2,3-c]pyridine-2,3-diamine] are less than 200 nM, 500 to 2000 nM and less than 200 nM.
On the same counts, the results for `Nc1oc2c(-c3ccnc(C(=O)N4CCCCC4)c3)nccc2c1Nc1ccc(F)c(Cl)c1` [Compound 271, (4-(2-Amino-3-((3-chloro-4-fluorophenyl)amino)furo[2,3-c]pyridin-7-yl)pyridin-2-yl)(piperidin-1-yl)methanone] are less than 200 nM, 500 to 2000 nM and less than 200 nM.
For `Nc1oc2c(-c3ccnc(C(=O)Nc4ccccc4)c3)nccc2c1Nc1ccc(F)c(Cl)c1` [Compound 249, 4-(2-Amino-3-((3-chloro-4-fluorophenyl)amino)furo[2,3-c]pyridin-7-yl)-N-phenylpicolinamide], the values for the IC50 (in experiment [1]; in experiment [2]; against IDO1 in HeLa cells) were less than 200 nM, greater than 2000 nM and 200 to 1000 nM, respectively.
For the compound `Cc1cc(-c2nccc3c(Nc4ccccc4Cl)c(N)oc23)ccn1` [Compound 206, N^3-(2-chlorophenyl)-7-(2-methylpyridin-4-yl)furo[2,3-c]pyridine-2,3-diamine], the IC50 in experiment [1] was less than 200 nM; in experiment [2], 500 to 2000 nM; against IDO1 in HeLa cells, less than 200 nM.
On to “2-Amino-3-((3-chloro-4-fluorophenyl)amino)furo[2,3-c]pyridine-7-carbonitrile [Compound 106]”, for which the results for the IC50 (in experiment [1]; in experiment [2]; against IDO1 in HeLa cells) were greater than 1000 nM, 500 to 2000 nM and greater than 1000 nM, respectively.
As for `Cc1cc(C)cc(Nc2c(N)oc3cnccc23)c1` [Compound 14, N^3-(3,5-Dimethylphenyl)furo[2,3-c]pyridine-2,3-diamine], the IC50 was 200 to 1000 nM in experiment [1], 500 to 2000 nM in experiment [2] and less than 200 nM against IDO1 in HeLa cells.
The corresponding values for `Cc1cc(-c2nc(F)cc3c(Nc4cccc(Cl)c4)c(N)oc23)ccn1` [Compound 254, N^3-(3-Ahlorophenyl)-5-fluoro-7-(2-methylpyridin-4-yl)furo[2,3-c]pyridine-2,3-diamine] are less than 200 nM, 500 to 2000 nM and less than 200 nM.
On the same counts, the results for `COc1cc(Nc2c(N)oc3cnccc23)ccc1Cl` [Compound 9, N^3-(4-Chloro-3-methoxyphenyl)furo[2,3-c]pyridine-2,3-diamine] are greater than 1000 nM, 500 to 2000 nM and 200 to 1000 nM.
